Experiment: Example 1: liver, abdominal and subcutaneous fat weight after 28 days
Format: in vivo, mouse (C57BL/6J male, 60% HFD DIO)
Settings: mean, HTD1801 200 mpk, empagliflozin 10 mpk in last 2 weeks (300/15 mpk before)
Text: After 5-week-old C57BL/6J male mice were acclimatized for 1 week, the weight of each mouse was weighed, and the mice were randomly divided into a control group and a model group by taking the weight as a main index, where 12 mice in the control group were fed with common feed (CD), and the mice in the remaining model group were fed with 60% high-fat feed (60% HFD) for 10-12 weeks to construct a DIO obesity model, with the average body weight being not less than 40 g. The mice fed with 60% HFD were grabbed and acclimatized with a solvent for 3 days, where the acclimatization with a solvent was performed by oral gavage of 0.5% CMC-Na, twice daily.
The food intake, the body weight, the body fat ratio, and the insulin level of the mice were respectively measured, followed by fasting blood glucose level, and the mice were randomly grouped according to Table 3 by taking the body weight as an index, and the remaining ungrouped mice were euthanized. After grouping, each group of mice was administered according to Table 3, the day of administration was defined as DO, and the administration volume of each drug was determined based on the results obtained by the calculation of 5 μL/g× mouse body weight (g).
For the combined administration group, the total administration volume was the sum of the administration volumes of two single drugs, and the administration sequence and the administration time were kept consistent at each administration. The mice were continuously fed with high-fat feed during the administration period until the administration was finished. During administration, 2 food intakes were measured per week (difference in feed weights at an interval of 24 h was measured); each group of mice was weighed once daily; postprandial blood glucose levels were measured weekly; blood was collected from the tail tip on day 6 and day 20, respectively, so as to measure fasting blood glucose levels once (blood was collected after fasting from 8:00 am to […]); on day 25 of administration, the body fat ratio and the lean mass of each group of mice were measured by MRI (the measurement period was kept consistent with that before grouping); after 4 weeks of administration intervention (day 28), each group of mice was fasted for 6 h and subjected to OGTT (0 min, 15 min, 30 min, 60 min, 90 min, 120 min) to detect their blood glucose levels, and meanwhile subjected to blood sampling via submaxillary vein (0 min, 15 min, 30 min, about 30 μL of blood sampled each time), and then the blood plasma was separated for detecting the insulin level by ELISA, where the separated blood plasma was more than 10 μL; the next day (D29) at the end of administration was set as the test endpoint, and the mice were fasted for 6 h in the morning and subjected to fasting blood glucose level measurement; subsequently, the mice were euthanized with CO2, blood was collected from the heart of each mouse for analysis, and each group of mice was dissected; the liver and subcutaneous, epididymal and mesenteric fat was collected, photographed and weighed, respectively.
After 28 days of administration, the mice were euthanized with CO2 the next day, and the mice of groups G1 to G5 were dissected, and liver and abdominal fat (including epididymis and mesentery), and subcutaneous fat were collected, photographed and weighed, respectively, and the results are shown in Table 6 below, FIG. 6, FIG. 7, and FIG. 8.

With `OC[C@H]1O[C@@H](c2ccc(Cl)c(Cc3ccc(O[C@H]4CCOC4)cc3)c2)[C@H](O)[C@@H](O)[C@@H]1O` [Empagliflozin, empagliflozin] as the molecule, how does the Epididymal fat weight read?
Its Epididymal fat weight is 2.82 g.

What about the Liver weight of the same molecule?
The Liver weight was 1.34 g.

And the Mesenteric fat weight?
The Mesenteric fat weight was 1.20 g.

And the Subcutaneous fat weight?
Its Subcutaneous fat weight is 3.02 g.

Which Epididymal fat weight does the source give for `COc1ccc2cc3[n+](cc2c1OC)CCc1cc2c(cc1-3)OCO2.C[C@H](CCC(=O)[O-])[C@H]1CC[C@H]2[C@@H]3[C@@H](O)C[C@@H]4C[C@H](O)CC[C@]4(C)[C@H]3CC[C@]12C` [HTD1801, berberine ursodeoxycholate] here?
The Epididymal fat weight was 2.31 g.

And the Liver weight?
The Liver weight was 0.98 g.

What about the Mesenteric fat weight of the same molecule?
Its Mesenteric fat weight is 0.78 g.

What about the Subcutaneous fat weight of the same molecule?
Its Subcutaneous fat weight is 2.32 g.

Source: patent US20260373165A1, “PHARMACEUTICAL COMBINATIONS AND COMPOSITIONS, AND METHODS OF USE THEREOF” (SHENZHEN HIGHTIDE BIOPHARMACEUTICAL LTD., priority 2022, published 2026)
